# Assay results taken from US6387881B1, “Inhibitors and substrates of thrombin” (priority 1992, dated 2002).
# Where “and” joins values, the source holds several entries; their conditions need not be identical. Identical values can stand only once.
# Test system: not listed separately
# Assay: Peripheral blood pressure after intravenous dose
# Type: in vivo, New Zealand white rabbits
# Conditions: 1 mg/kg i.v. dose
# Excerpt: […] R. May, C. M. Hero, K. D. Butler, C. P. Page, JOURNAL OF PHARMACOLOGICAL METHODS, 24, pp 1-35, 1990. Peripheral blood pressure was monitored by a pressure sensor in the carotid artery.
row,Compound,BLOOD PRESSURE Δ% of NORM
1,"CC1(C)C2CC3OB(C(CCCSC(=N)N)NC(=O)C4CCCN4C(=O)C(Cc4ccccc4)NC(=O)OCc4ccccc4)OC3(C)C1C2 [Compound 25, Z-D-Phe-Pro-BoroIrg-OPin]",SMALL
2,"CC(C)(C)OC(=O)NC(Cc1ccccc1)C(=O)N1CCCC1C(=O)NC(C=O)Cc1cnc[nH]1 [Compound 53, Boc-D-Phe-Pro-His-H]",NONE

# Same assay, conditions: 4 mg/kg iv. dose
row,Compound,BLOOD PRESSURE Δ% of NORM
1,"CC1(C)C2CC3OB(C(CCCSC(=N)N)NC(=O)C4CCCN4C(=O)C(Cc4ccccc4)NC(=O)OCc4ccccc4)OC3(C)C1C2 [Compound 25, Z-D-Phe-Pro-BoroIrg-OPin]",100% Δ% of NORM
2,"CC(C)(C)OC(=O)NC(Cc1ccccc1)C(=O)N1CCCC1C(=O)NC(C=O)Cc1cnc[nH]1 [Compound 53, Boc-D-Phe-Pro-His-H]",0 Δ% of NORM

# Molecular target: T1, Xa (Homo sapiens, UniProt P00742)
# T1 construct: Plasmin; Xa; Urokinase
# T1 sequence (P00742 41-179 limits assumed): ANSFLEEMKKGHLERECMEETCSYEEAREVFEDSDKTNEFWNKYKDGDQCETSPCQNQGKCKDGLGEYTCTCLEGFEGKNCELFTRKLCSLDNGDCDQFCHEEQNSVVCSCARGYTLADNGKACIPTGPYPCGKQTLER
# T1 sequence (P00742 235-488 limits assumed): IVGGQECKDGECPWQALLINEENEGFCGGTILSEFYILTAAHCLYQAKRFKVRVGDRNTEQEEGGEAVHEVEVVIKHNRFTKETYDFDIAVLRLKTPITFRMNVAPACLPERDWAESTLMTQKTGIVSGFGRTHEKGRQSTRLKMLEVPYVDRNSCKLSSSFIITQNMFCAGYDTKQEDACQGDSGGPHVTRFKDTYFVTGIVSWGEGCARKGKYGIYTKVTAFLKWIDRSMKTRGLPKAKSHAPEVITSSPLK
# Assay: IC50 against Xa
# Type: biochemical
# Conditions: single value given, incubation not given; read-out: Xa no inc/inc
row,Compound,IC50 [nM]
1,"CC1(C)C2CC3OB(C(CCCSC(=N)N)NC(=O)C4CCCN4C(=O)C(Cc4ccccc4)NC(=O)OCc4ccccc4)OC3(C)C1C2 [Compound 25, Z-D-Phe-Pro-BoroIrg-OPin]",14.1
2,"CC(C)(C)OC(=O)NC(Cc1ccccc1)C(=O)N1CCCC1C(=O)NC(C=O)Cc1cnc[nH]1 [Compound 53, Boc-D-Phe-Pro-His-H]",> 413000

# Molecular target: Urokinase (Homo sapiens, UniProt P00749)
# Assay: IC50 against urokinase
# Type: biochemical
# Conditions: single value given, incubation not given; read-out: Urokinase no inc/inc
row,Compound,IC50 [nM]
1,"CC1(C)C2CC3OB(C(CCCSC(=N)N)NC(=O)C4CCCN4C(=O)C(Cc4ccccc4)NC(=O)OCc4ccccc4)OC3(C)C1C2 [Compound 25, Z-D-Phe-Pro-BoroIrg-OPin]",75
2,"CC(C)(C)OC(=O)NC(Cc1ccccc1)C(=O)N1CCCC1C(=O)NC(C=O)Cc1cnc[nH]1 [Compound 53, Boc-D-Phe-Pro-His-H]",> 413000

# Molecular target: Plasmin (Homo sapiens, UniProt P00747)
# Sequence (P00747 97-580 limits assumed, species assumed): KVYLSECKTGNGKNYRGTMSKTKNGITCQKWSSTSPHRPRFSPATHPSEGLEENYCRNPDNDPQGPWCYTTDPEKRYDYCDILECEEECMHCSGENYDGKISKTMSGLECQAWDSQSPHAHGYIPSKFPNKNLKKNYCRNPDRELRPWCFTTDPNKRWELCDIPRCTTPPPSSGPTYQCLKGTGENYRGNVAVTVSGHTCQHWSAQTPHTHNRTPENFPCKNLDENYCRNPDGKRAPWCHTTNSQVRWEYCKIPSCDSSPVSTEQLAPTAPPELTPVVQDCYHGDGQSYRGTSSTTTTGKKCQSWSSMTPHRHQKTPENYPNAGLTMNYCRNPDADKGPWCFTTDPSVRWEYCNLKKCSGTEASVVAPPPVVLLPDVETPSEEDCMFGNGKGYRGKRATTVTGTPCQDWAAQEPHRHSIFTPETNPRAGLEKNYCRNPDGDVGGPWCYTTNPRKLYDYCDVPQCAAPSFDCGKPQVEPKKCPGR
# Sequence (P00747 581-810 limits assumed, species assumed): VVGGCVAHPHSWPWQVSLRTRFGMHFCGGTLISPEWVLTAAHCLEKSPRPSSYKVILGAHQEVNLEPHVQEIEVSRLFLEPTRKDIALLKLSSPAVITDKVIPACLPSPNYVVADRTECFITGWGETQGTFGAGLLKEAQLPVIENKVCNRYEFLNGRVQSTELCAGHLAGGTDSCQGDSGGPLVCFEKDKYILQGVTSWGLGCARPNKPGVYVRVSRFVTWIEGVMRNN
# Assay: IC50 against plasmin
# Type: biochemical
# Conditions: single value given, incubation not given; read-out: Plasmin no inc/inc
row,Compound,IC50 [nM]
1,"CC1(C)C2CC3OB(C(CCCSC(=N)N)NC(=O)C4CCCN4C(=O)C(Cc4ccccc4)NC(=O)OCc4ccccc4)OC3(C)C1C2 [Compound 25, Z-D-Phe-Pro-BoroIrg-OPin]",8.4
2,"CC(C)(C)OC(=O)NC(Cc1ccccc1)C(=O)N1CCCC1C(=O)NC(C=O)Cc1cnc[nH]1 [Compound 53, Boc-D-Phe-Pro-His-H]",> 413000

# Test system: bovine thrombin in plasma samples
# Assay: Ex-vivo TT
# Type: in vivo, New Zealand white rabbits
# Set-up: key: thrombin (coagulation) time in seconds
# Conditions: time 0 min, 1 mg/kg i.v. bolus, rabbit
# Method: A volume of 150 μl of citrated normal human plasma and 20 μl of buffer or sample were warmed at 37° C. for 1 min. Coagulation was started by adding 150 ul of freshly prepared bovine thrombin (5 NIHu/ml saline) and the coagulation time was recorded on a coagulometer.
# A phosphate buffer, pH 7.8, containing 0.1% bovine serum albumine and 0.02% sodium azide was used. The samples were dissolved in DMSO and diluted with the buffer. When no inhibitor was used DMSO was added to the buffer to the same concentration as that used in the samples. The inhibitor concentrations were plotted against the thrombin times in a semilogarithmic graph from which the inhibitor concentration that caused a doubling (40 sec) of the thrombin time was determined.
# (§1) Data was obtained as for in-vitro tests, but using plasma samples obtained at 0, 1, 10, 30 and 60 minutes after dosing of 1 mg/kg, i.v. bolus injection in a marginal ear vein in New Zealand white rabbits, which were anaesthetized from a canula in the carotid artery. [drawing 18]
row,Compound,EX-VIVO T.T.
1,"CC(C)(C)OC(=O)NC(Cc1ccccc1)C(=O)N1CCCC1C(=O)NC(C=O)Cc1cnc[nH]1 [Compound 53, Boc-D-Phe-Pro-His-H]",26 and 27 and 24 and 24.9

# Same assay, conditions: time 1 min, 1 mg/kg i.v. bolus, rabbit
row,Compound,EX-VIVO T.T.
1,"CC(C)(C)OC(=O)NC(Cc1ccccc1)C(=O)N1CCCC1C(=O)NC(C=O)Cc1cnc[nH]1 [Compound 53, Boc-D-Phe-Pro-His-H]",86.9 and 83.5 and 80.9 and 74

# Same assay, conditions: time 10 min, 1 mg/kg i.v. bolus, rabbit
row,Compound,EX-VIVO T.T.
1,"CC(C)(C)OC(=O)NC(Cc1ccccc1)C(=O)N1CCCC1C(=O)NC(C=O)Cc1cnc[nH]1 [Compound 53, Boc-D-Phe-Pro-His-H]",32 and 30 and 29.9

# Same assay, conditions: time 30 min, 1 mg/kg i.v. bolus, rabbit
row,Compound,EX-VIVO T.T.
1,"CC(C)(C)OC(=O)NC(Cc1ccccc1)C(=O)N1CCCC1C(=O)NC(C=O)Cc1cnc[nH]1 [Compound 53, Boc-D-Phe-Pro-His-H]",24.4 and 25 and 25.9 and 25.4

# Same assay, conditions: time 60 min, 1 mg/kg i.v. bolus, rabbit
row,Compound,EX-VIVO T.T.
1,"CC(C)(C)OC(=O)NC(Cc1ccccc1)C(=O)N1CCCC1C(=O)NC(C=O)Cc1cnc[nH]1 [Compound 53, Boc-D-Phe-Pro-His-H]",24.4 and 23.9 and 22.9

# Molecular target: not listed separately
# Assay: IC50 with and without incubation (enzyme not given)
# Type: biochemical
# Conditions: no incubation; read-out: IC50 No Incubations
row,Compound,IC50 [nM]
1,"CC1(C)C2CC3OB(C(CCCSC(=N)N)NC(=O)C4CCCN4C(=O)C(Cc4ccccc4)NC(=O)OCc4ccccc4)OC3(C)C1C2 [Compound 25, Z-D-Phe-Pro-BoroIrg-OPin]",1500

# Same assay, conditions: with incubation; read-out: IC50 Inc.
row,Compound,IC50 [nM]
1,"CC1(C)C2CC3OB(C(CCCSC(=N)N)NC(=O)C4CCCN4C(=O)C(Cc4ccccc4)NC(=O)OCc4ccccc4)OC3(C)C1C2 [Compound 25, Z-D-Phe-Pro-BoroIrg-OPin]",68

# Test system: plasma samples
# Assay: Ex-vivo APTT
# Type: in vivo, New Zealand white rabbits
# Set-up: unit not given here
# Conditions: time 0 min, 1 mg/kg i.v. bolus, rabbit
# Method: A volume of 150 μl of citrated (3.2%) normal human plasma was incubated at 37° C. with sample (20 μl) or buffer (20 μl, control) for 1 min. To the solution was added reconstituted “AUTOMATED APTT” (available from Organon Teknika, 0.1 ml). Each solution was activated at 37° C. for 5 min.
# After activation, calcium chloride (0.1 ml, 0.025M, prewarmed at 37° C.) was added and clot detection was timed using a “semiautomated coagulometer” (Nach, Schnicter und Gross).
# as §1
row,Compound,EX-VIVO A.P.T.T.
1,"CC(C)(C)OC(=O)NC(Cc1ccccc1)C(=O)N1CCCC1C(=O)NC(C=O)Cc1cnc[nH]1 [Compound 53, Boc-D-Phe-Pro-His-H]",32.9 and 24.9

# Same assay, conditions: time 1 min, 1 mg/kg i.v. bolus, rabbit
row,Compound,EX-VIVO A.P.T.T.
1,"CC(C)(C)OC(=O)NC(Cc1ccccc1)C(=O)N1CCCC1C(=O)NC(C=O)Cc1cnc[nH]1 [Compound 53, Boc-D-Phe-Pro-His-H]",41.5 and 27.9 and 30.9

# Same assay, conditions: time 10 min, 1 mg/kg i.v. bolus, rabbit
row,Compound,EX-VIVO A.P.T.T.
1,"CC(C)(C)OC(=O)NC(Cc1ccccc1)C(=O)N1CCCC1C(=O)NC(C=O)Cc1cnc[nH]1 [Compound 53, Boc-D-Phe-Pro-His-H]",39.9 and 29.9 and 26 and 25.9

# Same assay, conditions: time 30 min, 1 mg/kg i.v. bolus, rabbit
row,Compound,EX-VIVO A.P.T.T.
1,"CC(C)(C)OC(=O)NC(Cc1ccccc1)C(=O)N1CCCC1C(=O)NC(C=O)Cc1cnc[nH]1 [Compound 53, Boc-D-Phe-Pro-His-H]",31.4 and 30.4 and 25.4 and 26.1

# Same assay, conditions: time 60 min, 1 mg/kg i.v. bolus, rabbit
row,Compound,EX-VIVO A.P.T.T.
1,"CC(C)(C)OC(=O)NC(Cc1ccccc1)C(=O)N1CCCC1C(=O)NC(C=O)Cc1cnc[nH]1 [Compound 53, Boc-D-Phe-Pro-His-H]",28.9 and 27.5 and 25.9

# Test system: 111indium-labelled platelets
# Assay: Deposition of 111indium-labelled platelets after intravenous dose
# Type: in vivo, New Zealand white rabbits
# Conditions: 1 mg/kg i.v. dose
# Excerpt: M. Hero, K. D. Butler, C. […] Peripheral blood pressure was monitored by a pressure sensor in the carotid artery.
Compound,PLATELET ACCUMULATION (% OF NORMAL) LEG,PLATELET ACCUMULATION (% OF NORMAL) LUNG
"CC(C)(C)OC(=O)NC(Cc1ccccc1)C(=O)N1CCCC1C(=O)NC(C=O)Cc1cnc[nH]1 [Compound 53, Boc-D-Phe-Pro-His-H]",NONE,NONE

# Same assay, conditions: 4 mg/kg iv. dose
Compound,PLATELET ACCUMULATION (% OF NORMAL) LEG,PLATELET ACCUMULATION (% OF NORMAL) LUNG
"CC(C)(C)OC(=O)NC(Cc1ccccc1)C(=O)N1CCCC1C(=O)NC(C=O)Cc1cnc[nH]1 [Compound 53, Boc-D-Phe-Pro-His-H]",NONE,NONE

# Test system: Kalhikrein
# Assay: IC50 against kallikrein
# Type: biochemical
# Conditions: single value given, incubation not given; read-out: Kalhikrein no inc/inc
row,Compound,IC50 [nM]
1,"CC1(C)C2CC3OB(C(CCCSC(=N)N)NC(=O)C4CCCN4C(=O)C(Cc4ccccc4)NC(=O)OCc4ccccc4)OC3(C)C1C2 [Compound 25, Z-D-Phe-Pro-BoroIrg-OPin]",334
2,"CC(C)(C)OC(=O)NC(Cc1ccccc1)C(=O)N1CCCC1C(=O)NC(C=O)Cc1cnc[nH]1 [Compound 53, Boc-D-Phe-Pro-His-H]",> 413000
